Where two headings read alike, the source gives them in different places. Non-standard residues stand in square brackets, D forms with d. Residues, ends and D or L forms follow the SMILES beside them. Sar = CNCC(=O)O
Biological target: Sushi domains (SD1/2) protein
Experiment: Fluorescence polarization (FP) competition assay with AJAP-1probe, calculated Ki
Assay type: binding
In short: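 Ki values were derived from IC50s (sigmoidal fits, ≥ triplicate), with probe Kd obtained by saturation titration of SD1/2. Peptides displaced a 25 nM TAMRA-labelled probe; polarization read at 530/580 nm in 1% BSA-containing PBS, pH 7.4, room temperature.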

[1] = Table 4, truncation and elongation scans of APP epitope, read-out: Ki (nM) mean ± SEM
[2] = Table 5, elongation and truncation scan of AJAP-1 binding epitope, read-out: Ki (nM) mean ± SEM
[3] = Table 13, peptides for affinity maturation, read-out: Ki (nM) mean ± SEM
[4] = purified peptides, read-out: Ki
[5] = Table 11, deep mutational scanning validation variants of AJAP-1WT, read-out: Ki (nM) mean ± SEM
[6] = Table 10, deep mutational scanning validation variants of APPWT, read-out: Ki (nM) mean ± SEM

SMILES: CC(=O)N[C@H](C(=O)N[C@@H](Cc1c[nH]c2ccccc12)C(=O)N[C@@H](Cc1c[nH]c2ccccc12)C(=O)NCC(=O)NCC(=O)N[C@@H](C)C(=O)N[C@@H](CC(=O)O)C(=O)N[C@H](C(=O)N[C@@H](CC(=O)O)C(=O)N[C@@H](Cc1ccc(O)cc1)C(=O)N[C@@H](C)C(=O)N[C@@H](CC(=O)O)C(N)=O)[C@@H](C)O)C(C)C (Ac-VWWGGADTDYAD-NH2)
- Ki [1]: 60800 ± 5220 nM

SMILES: CC[C@H](C)[C@H](NC(=O)[C@H](Cc1ccccc1)NC(=O)[C@H](CCC(=O)O)NC(=O)[C@@H](NC(=O)[C@H](CCC(=O)O)NC(=O)[C@@H](NC(C)=O)[C@@H](C)O)[C@@H](C)O)C(=O)N[C@@H](C)C(=O)N[C@@H](Cc1c[nH]c2ccccc12)C(N)=O (Ac-TETEFIAW-NH2)
- Ki [2]: 1010 ± 67 nM

SMILES: CC[C@H](C)[C@H](NC(=O)[C@H](Cc1ccccc1)NC(=O)[C@H](CCC(=O)O)NC(=O)[C@@H](NC(=O)[C@H](CCC(=O)O)NC(=O)[C@@H](NC(C)=O)[C@@H](C)O)[C@@H](C)O)C(=O)N[C@@H](C)C(=O)N[C@@H](Cc1c[nH]c2ccccc12)C(=O)NCC(N)=O (Ac-TETEFIAWG-NH2)
- Ki [2]: 2470 ± 170 nM

SMILES: CC(=O)N[C@@H](CCC(=O)O)C(=O)N[C@@H](CC(=O)O)C(=O)N[C@@H](CC(=O)O)C(=O)N[C@@H](CO)C(=O)N[C@@H](CC(=O)O)C(=O)N[C@H](C(=O)N[C@@H](Cc1c[nH]c2ccccc12)C(=O)N[C@@H](Cc1c[nH]c2ccccc12)C(=O)N[C@@H](Cc1ccc(O)cc1)C(=O)NCC(=O)N(C)CC(=O)N[C@@H](C)C(=O)N[C@@H](CC(=O)O)C(=O)N[C@H](C(=O)N[C@@H](CC(=O)O)C(N)=O)[C@@H](C)O)C(C)C (Ac-EDDSDVWWYG[Sar]ADTD-NH2)
- Ki [3]: 164 ± 2 nM

SMILES: CC[C@H](C)[C@H](NC(=O)[C@H](C)NC(=O)[C@H](Cc1c[nH]c2ccccc12)NC(=O)[C@@H]1CCCN1C(C)=O)C(=O)N[C@H](C(=O)N[C@@H](Cc1c[nH]c2ccccc12)C(=O)NCC(=O)N1CCC[C@H]1C(=O)N[C@H](C(=O)N[C@H](C(=O)N[C@@H](CO)C(=O)N[C@@H](CCCNC(=N)N)C(=O)N[C@@H](CCC(=O)O)C(=O)N[C@@H](CC(=O)O)C(=O)NCC(N)=O)C(C)C)[C@@H](C)O)C(C)C [Peptide 14] (Ac-PWAIVWGPTVSREDG-NH2)
- Ki [4]: 465 nM

SMILES: CC[C@H](C)[C@H](NC(=O)[C@H](Cc1ccccc1)NC(=O)[C@H](CCC(=O)O)NC(=O)[C@@H](NC(=O)[C@H](CCC(=O)O)NC(C)=O)[C@@H](C)O)C(=O)N[C@@H](C)C(=O)N[C@@H](Cc1c[nH]c2ccccc12)C(=O)NCC(=O)N1CCC[C@H]1C(=O)N[C@H](C(=O)NCC(=O)N[C@@H](CC(=O)O)C(=O)N[C@@H](Cc1ccccc1)C(=O)N[C@@H](CC(=O)O)C(N)=O)[C@@H](C)O (Ac-ETEFIAWGPTGDFD-NH2)
- Ki [5]: 41 ± 2 nM

SMILES: CC[C@H](C)[C@H](NC(=O)[C@H](Cc1ccccc1)NC(=O)[C@H](CCC(=O)O)NC(=O)[C@@H](NC(=O)[C@H](CCC(=O)O)NC(C)=O)[C@@H](C)O)C(=O)N[C@@H](C)C(=O)N[C@@H](Cc1c[nH]c2ccccc12)C(=O)NCC(=O)N1CCC[C@H]1C(=O)N[C@H](C(=O)NCC(=O)N[C@@H](CC(=O)O)C(=O)N[C@H](C(=O)N[C@@H](CC(=O)O)C(N)=O)C(C)C)[C@@H](C)O
- Ki [5]: 39 ± 1 nM

SMILES: CC(=O)N[C@@H](CCC(=O)O)C(=O)N[C@@H](CC(=O)O)C(=O)N[C@@H](CC(=O)O)C(=O)N[C@@H](CO)C(=O)N[C@@H](CC(=O)O)C(=O)N[C@H](C(=O)N[C@@H](Cc1c[nH]c2ccccc12)C(=O)N[C@@H](Cc1c[nH]c2ccccc12)C(=O)N[C@@H](Cc1c[nH]cn1)C(=O)NCC(=O)N[C@@H](C)C(=O)N[C@@H](CC(=O)O)C(=O)N[C@H](C(=O)N[C@@H](CC(=O)O)C(N)=O)[C@@H](C)O)C(C)C (Ac-EDDSDVWWHGADTD-NH2)
- Ki [6]: 270 ± 4 nM

SMILES: CC(=O)N[C@@H](CCC(=O)O)C(=O)N[C@@H](CC(=O)O)C(=O)N[C@@H](CC(=O)O)C(=O)N[C@@H](CO)C(=O)N[C@@H](Cc1ccccc1)C(=O)N[C@H](C(=O)N[C@@H](Cc1c[nH]c2ccccc12)C(=O)N[C@@H](Cc1c[nH]c2ccccc12)C(=O)NCC(=O)NCC(=O)N[C@@H](C)C(=O)N[C@@H](CC(=O)O)C(=O)N[C@H](C(=O)N[C@@H](CC(=O)O)C(N)=O)[C@@H](C)O)C(C)C (Ac-EDDSFVWWGGADTD-NH2)
- Ki [6]: 142 ± 6 nM

SMILES: CCOc1ccc(C[C@H](NC(=O)[C@H](CO)NC(=O)[C@H](CC(=O)O)NC(=O)[C@H](CC(=O)O)NC(=O)[C@H](CCC(=O)O)NC(C)=O)C(=O)N[C@H](C(=O)N[C@@H](Cc2c[nH]c3ccccc23)C(=O)N[C@@H](Cc2c[nH]c3ccccc23)C(=O)NCC(=O)NCC(=O)N[C@@H](C)C(=O)N[C@@H](CC(=O)O)C(=O)N[C@H](C(=O)N[C@@H](CC(=O)O)C(N)=O)[C@@H](C)O)C(C)C)cc1 (Ac-EDDSY(Et)VWWGGADTD-NH2)
- Ki (Table 16, ncAAs incorporated peptides, read-out: Ki (nM) mean ± SEM): 46 ± 2 nM
- Ki [4]: 46.3 nM
- fold increased affinity compared to Asp207Trp (relative to Asp207Trp mutant of APPWT): 2 fold

SMILES: CC[C@H](C)[C@H](NC(=O)[C@H](Cc1ccccc1)NC(=O)[C@H](CCC(=O)O)NC(=O)[C@@H](NC(=O)[C@H](CCC(=O)O)NC(=O)[C@@H](NC(C)=O)[C@@H](C)O)[C@@H](C)O)C(=O)N[C@@H](C)C(=O)N[C@@H](Cc1c[nH]c2ccccc12)C(=O)NCC(=O)N1CCC[C@H]1C(=O)N[C@H](C(=O)NCC(=O)N[C@@H](CC(=O)O)C(=O)N[C@@H](CCC(=O)O)C(=O)N[C@@H](CC(=O)O)C(N)=O)[C@@H](C)O [Peptide 15, Ac-TETEFIAWGPTGDED-NH2] (Ac-TETEFIAWGPTGDED-NH2)
- Ki [2]: 26 ± 0.3 nM
- Ki [4]: 23 nM

SMILES: CC[C@H](C)[C@H](NC(=O)[C@H](C)NC(=O)[C@H](Cc1c[nH]c2ccccc12)NC(=O)[C@@H]1CCCN1C(C)=O)C(=O)N[C@H](C(=O)N[C@@H](Cc1c[nH]c2ccccc12)C(=O)NCC(=O)N1CCC[C@H]1C(=O)N[C@H](C(=O)N[C@H](C(=O)N[C@@H](CO)C(=O)N[C@@H](CC(=O)O)C(=O)N[C@@H](CCC(=O)O)C(=O)N[C@@H](CC(=O)O)C(N)=O)C(C)C)[C@@H](C)O)C(C)C [PWAIVWGPTVSDED] (Ac-PWAIVWGPTVSDED-NH2)
- Ki (Table 12, deep mutational scanning validation variants of PIANPWT, read-out: Ki (nM) mean ± SEM): 327 ± 6 nM

SMILES: CC[C@H](C)[C@H](NC(=O)[C@H](Cc1ccccc1)NC(=O)[C@H](CCC(=O)O)NC(=O)[C@@H](NC(=O)[C@H](CCC(=O)O)NC(C)=O)[C@@H](C)O)C(=O)N[C@@H](C)C(=O)N[C@@H](Cc1c[nH]c2ccccc12)C(=O)NCC(=O)N1CCC[C@H]1C(=O)N[C@H](C(=O)NCC(=O)N[C@@H](CC(=O)O)C(=O)N[C@@H](CCC(=O)O)C(=O)N[C@@H](Cc1c[nH]cn1)C(N)=O)[C@@H](C)O
- Ki [5]: 39 ± 2 nM

SMILES: CC(=O)NCC(=O)NCC(=O)N[C@@H](C)C(=O)N[C@@H](CC(=O)O)C(=O)N[C@H](C(=O)N[C@@H](CC(=O)O)C(=O)N[C@@H](Cc1ccc(O)cc1)C(=O)N[C@@H](C)C(=O)N[C@@H](CC(=O)O)C(N)=O)[C@@H](C)O (Ac-GGADTDYAD-NH2)
- Ki [1]: > 62500 nM

SMILES: CC(=O)N[C@@H](CCC(=O)O)C(=O)N[C@@H](CC(=O)O)C(=O)N[C@@H](CC(=O)O)C(=O)N[C@@H](CO)C(=O)N[C@@H](CC(=O)O)C(=O)N[C@H](C(=O)N[C@@H](C)C(=O)N[C@@H](Cc1c[nH]c2ccccc12)C(=O)NCC(=O)NCC(=O)N[C@@H](C)C(=O)N[C@@H](CC(=O)O)C(=O)N[C@H](C(=O)N[C@@H](CC(=O)O)C(N)=O)[C@@H](C)O)C(C)C (Ac-EDDSDVAWGGADTD-NH2)
- Ki (Table 7, Ala-, D-amino acids and N-methylation scans of APPWT, read-out: Ki (nM) mean ± SEM): 8790 ± 92 nM

SMILES: CC[C@H](C)[C@H](NC(=O)[C@H](Cc1c[nH]c2ccccc12)NC(=O)[C@H](CC(=O)O)NC(=O)[C@H](CC(=O)O)NC(=O)[C@H](CC(=O)O)NC(=O)[C@H](CCC(=O)O)NC(=O)[C@H](CCCNC(=N)N)NC(=O)[C@H](CCCNC(=N)N)NC(=O)[C@H](CCCNC(=N)N)NC(=O)[C@H](CCCNC(=N)N)NC(=O)[C@H](CCCNC(=N)N)NC(C)=O)C(=O)N[C@@H](CC(=O)O)C(=O)N[C@@H](Cc1c[nH]c2ccccc12)C(=O)N[C@@H](Cc1ccc(O)cc1)C(=O)N[C@@H](CC(=O)O)C(=O)N[C@@H](CO)C(=O)N[C@@H](CC(=O)O)C(=O)N[C@@H](CC(=O)O)C(=O)N[C@@H](CC(=O)O)C(N)=O (Ac-RRRRREDDDWIDWYDSDDD-NH2)
- Ki (Table 14, CPPs tagged peptides, read-out: Ki (nM) mean ± SEM): 39.5 ± 2 nM

SMILES: CC[C@H](C)[C@H](NC(=O)[C@H](Cc1ccccc1)NC(=O)[C@H](CCC(=O)O)NC(=O)[C@@H](NC(=O)[C@H](CCC(=O)O)NC(C)=O)[C@@H](C)O)C(=O)N[C@@H](C)C(=O)N[C@@H](Cc1c[nH]c2ccccc12)C(=O)NCC(=O)N1CCC[C@H]1C(=O)N[C@H](C(=O)NCC(=O)N[C@@H](CC(=O)O)C(=O)N1CCC[C@H]1C(=O)N[C@@H](CC(=O)O)C(N)=O)[C@@H](C)O (Ac-ETEFIAWGPTGDPD-NH2)
- Ki [5]: 34 ± 2 nM

SMILES: CC[C@H](C)[C@H](NC(=O)[C@H](C)NC(=O)[C@H](Cc1c[nH]c2ccccc12)NC(=O)[C@@H]1CCCN1C(C)=O)C(=O)N[C@H](C(=O)N[C@@H](Cc1c[nH]c2ccccc12)C(=O)NCC(=O)N1CCC[C@H]1C(=O)N[C@H](C(=O)N[C@H](C(=O)N[C@@H](CO)C(=O)N[C@@H](CCCNC(=N)N)C(=O)N[C@@H](CCC(=O)O)C(=O)N[C@@H](CC(=O)O)C(=O)NCC(=O)NCC(=O)N[C@@H](CC(=O)O)C(N)=O)C(C)C)[C@@H](C)O)C(C)C (Ac-PWAIVWGPTVSREDGGD-NH2)
- Ki (Table 6, elongation and truncation scan of PIANP binding epitope, read-out: Ki (nM) mean ± SEM): 716 ± 6 nM

SMILES: CC[C@H](C)[C@H](NC(=O)[C@H](Cc1ccccc1)NC(=O)[C@H](CCC(=O)O)NC(=O)[C@@H](NC(=O)[C@H](CCC(=O)O)NC(C)=O)[C@@H](C)O)C(=O)N[C@@H](C)C(=O)N[C@@H](Cc1c[nH]c2ccccc12)C(=O)N[C@@H](Cc1ccc(O)cc1)C(=O)NCC(=O)N1CCC[C@H]1C(=O)N[C@@H](C)C(=O)N[C@@H](CC(=O)O)C(=O)N[C@H](C(=O)N[C@@H](CC(=O)O)C(N)=O)[C@@H](C)O (Ac-ETEFIAWYGPADTD-NH2)
- Ki [3]: 182 ± 2 nM
